Source: ChEMBL document CHEMBL2021800, “Aberrant cyclization affords a C-6 modified cyclic adenosine 5'-diphosphoribose analogue with biological activity in Jurkat T cells” (J Med Chem, 2012)
The source made the active and inactive calls. The calls are words filed in the database; no cut-off is given here.

Assays:
Type in all cases: functional, cell-based
Jurkat [1] = test: Inhibition of N1-cIDPR-induced Ca2+ release in human Jurkat T cells using fluo-3 dye by spectrofluorometry analysis
Jurkat [2] = test: Induction of Ca2+ release in human Jurkat T cells at 10 to 30 uM using fluo-3 dye by spectrofluorometry analysis
Jurkat [3] = test: Induction of Ca2+ release in human Jurkat T cells at 100 to 300 uM using fluo-3 dye by spectrofluorometry analysis
Jurkat [4] = test: Inhibition of cADPR-induced Ca2+ release in human Jurkat T cells using fluo-3 dye by spectrofluorometry analysis

In the case of `O=P1(O)OC[C@H]2O[C@H]([C@H](O)[C@@H]2O)n2cnc3c(ncn3[C@@H]3O[C@H](COP(=O)(O)O1)[C@@H](O)[C@H]3O)c2=S`, the IC50 (Jurkat [1]) is reported as 3 µM, the inhibition (Jurkat [1]) is reported as “Dose-dependent effect” and the Activity (Jurkat [2]) is reported as “inactive”. The Activity (Jurkat [3]) was “Active”, the IC50 (Jurkat [4]) was 30 µM and the inhibition (Jurkat [4]) was “Dose-dependent effect”.
